According to PMC10793102 (Acta Pharmaceutica Sinica. B, 2023):
Like-named read-outs stand apart in the source and are kept apart here.

Experiments:
L929 = test: Cell viability assay, protection from necroptosis in L929 cells; type: cell-based, mouse; settings: for EC50: Mus musculus, L929, 16 h
FADD−/− Jurkat = test: Cell viability assay, protection from necroptosis in FADD−/− Jurkat cells; type: cell-based; settings: Homo sapiens, 16 h
[1] = read-out: EC50 FADD−/− Jurkat T + S
[2] = read-out: EC50 FADD−/− Jurkat TNFα

Compound	protective effects against cell death of L929 cells induced by TNFα (L929; TNFα 40 ng/mL, 15 h, Fig. 2A)	EC50 (FADD−/− Jurkat; [1])	EC50 (FADD−/− Jurkat; [2])	EC50 (L929; read-out: EC50 L929 T + S)	EC50 (L929; read-out: EC50 L929 TNFα)
CCN1CCN(Cc2ccc(NC(=O)c3ccc(-n4cnc5cc(C(=O)NC)ccc54)cc3)cc2C(F)(F)F)CC1 [compound 13]	relatively weaker				
CNC(=O)c1ccc2c(c1)ncn2-c1ccc(CC(=O)N(O)Cc2ccccc2)cc1 [compound 14]		> 10000 nM	3800 nM	98 nM	50 nM
CNC(=O)c1ccc2c(c1)ncn2-c1ccc(CNC(=O)c2n[nH]c(Cc3ccccc3)n2)cc1 [compound 15]			> 10000 nM		
CNC(=O)c1ccc2c(c1)ncn2-c1ccc(CNC(=O)c2noc(Cc3ccccc3)n2)cc1 [compound 16]		176 nM	24 nM		962 nM
CNC(=O)c1ccc2c(c1)ncn2-c1ccc(CNC(=O)c2nnc(Cc3ccccc3)o2)cc1 [compound 17]		1520 nM	185 nM		
CNC(=O)c1ccc2c(c1)ncn2-c1ccc(CNC(=O)c2ncc(Cc3ccccc3)o2)cc1 [compound 18]		380 nM	70 nM	3980 nM	831 nM
CNC(=O)c1ccc2c(c1)ncn2-c1ccc(CNC(=O)c2nocc2Cc2ccccc2)cc1 [compound 19]		113 nM	8.1 nM	3350 nM	2140 nM
CNC(=O)c1ccc2ncn(-c3ccc(CNC(=O)c4cc(Cc5ccccc5)nn4C)cc3)c2c1 [compound 21]		> 10000 nM	> 10000 nM	> 10000 nM	> 10000 nM
CCn1nc(C(=O)NCc2ccc(-n3cnc4cc(C(=O)NC)ccc43)cc2)cc1Cc1ccccc1 [compound 22]		43 nM	5.9 nM		
CCCn1nc(C(=O)NCc2ccc(-n3cnc4cc(C(=O)NC)ccc43)cc2)cc1Cc1ccccc1 [compound 23]		738 nM	109 nM		
CNC(=O)c1ccc2c(c1)ncn2-c1ccc(CNC(=O)c2cn(Cc3ccccc3)nn2)cc1 [compound 24]		1590 nM	233 nM		
CNC(=O)c1ccc2c(c1)ncn2-c1ccc(CNC(=O)c2nnn(Cc3ccccc3)n2)cc1 [compound 25]		150 nM	24 nM		
CNC(=O)c1ccc2c(c1)ncn2-c1ccc(CNC(=O)c2ccc(F)n2Cc2ccccc2)cc1 [compound 26]		17 nM	1.7 nM	34 nM	6 nM
CNC(=O)c1ccc2c(ccn2-c2ccc(CNC(=O)c3cc(Cc4ccccc4)n(C)n3)cc2)c1 [compound 28]		> 10000 nM	> 10000 nM	> 10000 nM	> 10000 nM
CNC(=O)c1ccc2c(cnn2-c2ccc(CNC(=O)c3cc(Cc4ccccc4)n(C)n3)cc2)c1 [compound 29]		> 10000 nM	> 10000 nM	> 10000 nM	> 10000 nM
CN(C)CCNC(=O)c1ccc2c(c1)ncn2-c1ccc(CNC(=O)c2cnn(C)c2Cc2ccccc2)cc1 [compound 30]		368 nM	53 nM	> 10000 nM	> 10000 nM
CN1CCN(CCNC(=O)c2ccc3c(c2)ncn3-c2ccc(CNC(=O)c3cnn(C)c3Cc3ccccc3)cc2)CC1 [compound 31]		0.6 nM	0.01 nM	> 10000 nM	5630 nM
Cn1ncc(C(=O)NCc2ccc(-n3cnc4cc(C(=O)NCCN5CCOCC5)ccc43)cc2)c1Cc1ccccc1 [compound 32]		3 nM	0.5 nM	190 nM	32 nM
COc1cc2ncn(-c3ccc(CNC(=O)c4cnn(C)c4Cc4ccccc4)cc3)c2cc1OC [compound 33]		0.1 nM	0.02 nM	0.4 nM	0.06 nM
COc1ccc2c(c1)ncn2-c1ccc(CNC(=O)c2cnn(C)c2Cc2ccccc2)cc1 [compound 34]		0.1 nM	0.002 nM	0.08 nM	0.005 nM

Compound	protective effects against cell death of L929 cells induced by TNFα (L929; TNFα 40 ng/mL, 15 h, Fig. 2A)	EC50 (FADD−/− Jurkat; [1])	EC50 (FADD−/− Jurkat; [2])	EC50 (L929; read-out: EC50 L929 T + S)	EC50 (L929; read-out: EC50 L929 TNFα)
COc1ccc2ncn(-c3ccc(CNC(=O)c4cnn(C)c4Cc4ccccc4)cc3)c2c1 [compound 35]		0.6 nM	0.01 nM	0.4 nM	0.03 nM
COc1ccc2c(cnn2-c2ccc(CNC(=O)c3cnn(C)c3Cc3ccccc3)cc2)c1 [compound 36]		128 nM	18 nM		
COc1cc2ncnc(-c3ccc(CNC(=O)c4cnn(C)c4Cc4ccccc4)cc3)c2cc1OC [compound 37]		1500 nM	233 nM		
Cn1ncc(C(=O)NCc2ccc(-c3ncnc4[nH]ccc34)cc2)c1Cc1ccccc1 [compound 38]		747 nM	152 nM	> 10000 nM	> 10000 nM
Cn1ncc(C(=O)NCc2ccc(-n3cnc4c(N)nccc43)cc2)c1Cc1ccccc1 [compound 40]		2.3 nM	0.3 nM	6.3 nM	1.2 nM
Cn1ncc(C(=O)NCc2ccc(-n3ncc4c(N)ncnc43)cc2)c1Cc1ccccc1 [compound 41]		6.9 nM	0.4 nM	23 nM	9.9 nM
Cn1ncc(C(=O)NCc2ccc(-n3ccc4c(N)ncnc43)cc2)c1Cc1ccccc1 [compound 42]		8 nM	4.2 nM	0.9 nM	0.1 nM
Cn1nc(C(=O)NCc2ccc(-n3cnc4c(N)ncnc43)cc2)cc1Cc1ccccc1 [compound 43]		0.3 nM	0.06 nM	384 nM	25 nM
Cn1nc(C(=O)NCc2ccc(-n3ncc4c(N)ncnc43)cc2)cc1Cc1ccccc1 [compound 44]		451 nM	71 nM		
Cn1nc(C(=O)NCc2ccc(-n3ccc4c(N)ncnc43)cc2)cc1Cc1ccccc1 [compound 45]		980 nM	137 nM		2890 nM
Cn1nc(C(=O)NCc2ccc(-n3ccc4c(N)nccc43)cc2)cc1Cc1ccccc1 [compound 46]		> 10000 nM	361 nM		
CCn1ncc(C(=O)NCc2ccc(-n3cnc4c(N)ncnc43)cc2)c1Cc1ccccc1 [compound 47]		35 nM	1.2 nM	74 nM	22 nM
Nc1ncnc2c1ncn2-c1ccc(CNC(=O)c2ccc(F)n2Cc2ccccc2)cc1 [compound 51]		1.6 nM	0.1 nM	74 nM	0.9 nM
Nc1ncnc2c1ncn2-c1ccc(CNC(=O)c2ccc(Cl)n2Cc2ccccc2)cc1 [compound 52]		80.6 nM	6.6 nM		
N#Cc1ccc(C(=O)NCc2ccc(-n3cnc4c(N)ncnc43)cc2)n1Cc1ccccc1 [compound 53]		1860 nM	214 nM		
C[C@@H](NC(=O)c1cnn(C)c1Cc1ccccc1)c1ccc(-n2cnc3c(N)ncnc32)cc1 [compound 55]		132 nM	36 nM	219 nM	52 nM
Cn1ncc(C(=O)NC(C)(C)c2ccc(-n3cnc4c(N)ncnc43)cc2)c1Cc1ccccc1 [compound 56]		28 nM	7.5 nM		550 nM
Cn1nc2c(c1Cc1ccccc1)C(=O)N(Cc1ccc(-n3cnc4c(N)ncnc43)cc1)CC2 [compound 59]		2.3 nM	0.2 nM	39 nM	8.4 nM
Nc1ncnc2c1ncn2-c1ccc(CN2CCc3cn(Cc4ccccc4)nc3C2=O)cc1 [compound 61]		0.4 nM	0.3 nM		
